# According to BindingDB's records for doi:10.1074/jbc.M112.419069 (John Innes Centre, 2013):
# Target: DNA gyrase subunit A (Mycobacterium tuberculosis (strain ATCC 25618 / H37Rv), UniProt P9WG47)
# Assay: Enzyme Assay
# Protocol: Mycobacterium tuberculosis gyrase supercoiling, relaxation, and decatenation assays were carried out as described previously.
# DNA gyrase subunit A, sequence (P9WG47 whole entry): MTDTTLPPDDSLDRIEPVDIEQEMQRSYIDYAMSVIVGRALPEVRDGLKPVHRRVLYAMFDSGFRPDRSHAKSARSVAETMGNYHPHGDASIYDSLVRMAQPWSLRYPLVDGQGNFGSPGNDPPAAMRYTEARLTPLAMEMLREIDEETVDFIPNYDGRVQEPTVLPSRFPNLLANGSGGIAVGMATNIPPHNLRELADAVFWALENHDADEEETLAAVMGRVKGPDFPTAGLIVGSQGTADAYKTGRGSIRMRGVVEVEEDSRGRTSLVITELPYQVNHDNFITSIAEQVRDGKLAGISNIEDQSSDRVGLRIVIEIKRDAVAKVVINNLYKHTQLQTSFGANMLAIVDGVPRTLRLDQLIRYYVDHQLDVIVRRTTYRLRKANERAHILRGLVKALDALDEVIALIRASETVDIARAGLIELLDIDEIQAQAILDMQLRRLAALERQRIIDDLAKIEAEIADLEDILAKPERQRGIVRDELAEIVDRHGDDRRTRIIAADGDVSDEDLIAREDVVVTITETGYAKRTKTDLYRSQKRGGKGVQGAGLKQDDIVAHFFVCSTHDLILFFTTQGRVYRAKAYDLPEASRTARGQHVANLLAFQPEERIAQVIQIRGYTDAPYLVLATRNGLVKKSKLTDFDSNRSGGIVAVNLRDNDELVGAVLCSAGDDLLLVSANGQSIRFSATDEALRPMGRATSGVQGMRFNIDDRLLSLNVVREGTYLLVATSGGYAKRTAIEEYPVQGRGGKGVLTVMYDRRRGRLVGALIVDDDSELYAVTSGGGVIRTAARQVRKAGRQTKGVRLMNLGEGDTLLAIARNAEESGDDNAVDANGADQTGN
row,Compound,IC50
1,"Cc1cc(O)c2c(c1)C(=O)C=CC2=O [5-Hydroxy-7-methyl-[1,4]naphthoquinone]",30 µM
2,Cc1cc(O)c2c(c1)C(=O)C(c1c(C)cc3c(c1O)C(=O)C=CC3=O)=CC2=O [Diospyrin],15 µM
3,Cc1cc2c(c(O)c1-c1c(C)cc(O)c3c1C(=O)C=CC3=O)C(=O)C=CC2=O [Isodiospyrin],100 µM
4,Cc1cc(O)c2c(c1)C(=O)C=C(c1c(C)cc(O)c3c1C(=O)C=CC3=O)C2=O [Neodiospyrin],50 µM
5,CC1=CC(=O)c2ccccc2C1=O [Vitamin K3],> 200 µM
